Source: patent US11084829B2, “Ubiquitin-specific-processing protease 7 (USP7) modulators and uses thereof” (RAPT THERAPEUTICS, INC., priority 2018, dated 2021)
Like-named read-outs stand apart in the source and are kept apart here.

Legend:
CHP-134 = assay: Cell viability (CellTiter-Glo), CHP-134; format: cell-based; details: Homo sapiens; CHP-134, neuroblastoma, MYCN amplified, p53 wild-type
Description: (§1) CHP-134 was purchased from Sigma Aldrich, MOLM-13 was purchased from AddexBio, and NB-1 was purchased from Sekisui XenoTech. All other cell lines were purchased from American Type Culture Collection. For all cell lines, identity was confirmed by short tandem repeat profiling and culturing was performed in recommended growth medium. For studies evaluating cellular effects of compound treatment, 250 to 2,000 cells in 40 μl of recommended medium were seeded per well in 384-well plates (Corning 3764). DMSO-solubilized compounds were added in duplicate in a two-fold dilution series using a D300e Digital Dispenser (Hewlett-Packard). Following a 5-day incubation, cell viability was measured using CellTiter-Glo (Promega) following the manufacturer's instructions. Luminescence was measured using a CLARIOstar plate reader (BMG LABTECH) and normalized to that of DMSO-treated cells. IC50 values were determined by non-linear regression using a 4-parameter fit in Prism (GraphPad Software). Inhibitor profiling of the 430-cell line panel was conducted and analyzed similarly.
(§2) USP7 has been reported to stabilize MYCN (also referred to as MYCN proto-oncogene, a gene that is a member of the MYC family which is over-expressed in a variety of tumors). Since MYCN amplification is an established driver mutation in neuroblastoma, the effect of USP7 inhibition on a panel of p53 wild-type, MYCN- or MYC-amplified neuroblastoma cell lines was tested. The USP7 inhibitors of Examples 31 and 124 reduced viability of all three MYCN-amplified and two MYC-amplified neuroblastoma cell lines tested as shown in Table 4. Idasanutlin was used as a positive control, and as expected these cell lines were also sensitive to this compound.

H526 = assay: Cell viability (CellTiter-Glo), H526; format: cell-based; details: Homo sapiens, NCI-H526
Description: as §1
(§3) In addition to the many p53 wild-type cell lines in the cell line panel that were sensitive to USP7 inhibition, a subset of p53 mutant cell lines that were inhibited by our USP7 inhibitors were identified and are shown in Table 5.
(§4) The effect of pharmacological inhibition of USP7 on the viability of the p53 mutant small cell lung cancer cell line, H526 was further evaluated. […] In contrast, idasanutlin, whose inhibitory effect is dependent on a functional p53 pathway, had no effect.

MM.1S = assay: Cell viability (CellTiter-Glo), MM.1S; format: cell-based; details: Homo sapiens, MM1.S, p53 wild-type
Description: as §1
(§5) USP7 inhibition by the compounds of Examples 31 and 124 reduced the viability of several p53-wild type blood cancer cell lines, including M07e, OCI-AML5 and MOLM13, in vitro as shown in the following Table 3. Idasanutlin was used as a positive control, and as expected these cell lines were also sensitive to this compound.

EOL-1 = assay: Cell viability (CellTiter-Glo), EOL-1; format: cell-based; details: Homo sapiens, EOL1; EOL-1, AML, p53 wild-type
Description: as §1, §5

OCI-AML5 = assay: Cell viability (CellTiter-Glo), OCI-AML5; format: cell-based; details: Homo sapiens, OCI-AML-5, p53 wild-type
Description: as §1, §5

NCI-H929 = assay: Cell viability (CellTiter-Glo), NCI-H929; format: cell-based; details: Homo sapiens; NCI-H929, MM, p53 wild-type
Description: as §1, §5

MOLM13 = assay: Cell viability (CellTiter-Glo), MOLM13; format: cell-based; details: Homo sapiens, MOLM-13; MOLM13, AML, p53 wild-type
Description: as §1, §5

MOLP8 = assay: Cell viability (CellTiter-Glo), MOLP8; format: cell-based; details: Homo sapiens, MOLP-8; MOLP8, MM, p53 wild-type
Description: as §1, §5

SH-SY5Y = assay: Cell viability (CellTiter-Glo), SH-SY5Y; format: cell-based; details: Homo sapiens, neuroblastoma, MYC amplified, p53 wild-type
Description: as §1, §2

MM.1S xenograft = MM.1S xenograft model in NOD-SCID mice; format: in vivo
Description: (§6) MM. 1S and H526 xenograft studies were conducted according to the guidelines approved by the Applicant's Institutional Animal Care and Use Committee (IACUC). MM.1S cells were inoculated in PBS into irradiated NOD/SCID mice, while H526 cells were inoculated in PBS/Matrigel (Corning) into Nu/Nu mice (Jackson Laboratories). Mice were randomized into groups when mean tumor size reached 150 mm^3 (MM.1S) or 50-100 mm^3 (H526), respectively, and drug administration by oral gavage was started on day of randomization. Tumor volumes and body weights were subsequently measured twice per week. Tumor volumes were calculated using the formula: V=0.5(A×B^2), where A and B are the long and short diameters of the tumor, respectively.
(§7) The effects of USP7 inhibition were assessed in vivo in the MM.1S xenograft model in NOD-SCID mice via daily oral dosing of the USP7 inhibitor 3-((7-(5-chloro-2-(((2S,6S)-2,6-dimethylpiperazin-1-yl)methyl)-3-methylphenyl)thieno[3,2-b]pyridin-2-yl)methyl)-3-azabicyclo[3.1.0]hexane-2,4-dione (the compound of Example 31) at 50 mg/kg and 100 mg/kg. […] However, brief dosing holidays allowed the mice to recover and dosing to continue.

LA-N-2 = assay: Cell viability (CellTiter-Glo), LA-N-2; format: cell-based; details: LA-N-2, neuroblastoma, MYCN-amplified, p53-mutant
Description: as §1, §3

M07e = assay: Cell viability (CellTiter-Glo), M07e; format: cell-based; details: M-07e, AML, p53 wild-type
Description: as §1, §5

USP7 = USP7 (Homo sapiens, UniProt Q93009); assay: USP7 inhibitory potency (IC50); format: biochemical
USP7, sequence (Q93009 whole entry): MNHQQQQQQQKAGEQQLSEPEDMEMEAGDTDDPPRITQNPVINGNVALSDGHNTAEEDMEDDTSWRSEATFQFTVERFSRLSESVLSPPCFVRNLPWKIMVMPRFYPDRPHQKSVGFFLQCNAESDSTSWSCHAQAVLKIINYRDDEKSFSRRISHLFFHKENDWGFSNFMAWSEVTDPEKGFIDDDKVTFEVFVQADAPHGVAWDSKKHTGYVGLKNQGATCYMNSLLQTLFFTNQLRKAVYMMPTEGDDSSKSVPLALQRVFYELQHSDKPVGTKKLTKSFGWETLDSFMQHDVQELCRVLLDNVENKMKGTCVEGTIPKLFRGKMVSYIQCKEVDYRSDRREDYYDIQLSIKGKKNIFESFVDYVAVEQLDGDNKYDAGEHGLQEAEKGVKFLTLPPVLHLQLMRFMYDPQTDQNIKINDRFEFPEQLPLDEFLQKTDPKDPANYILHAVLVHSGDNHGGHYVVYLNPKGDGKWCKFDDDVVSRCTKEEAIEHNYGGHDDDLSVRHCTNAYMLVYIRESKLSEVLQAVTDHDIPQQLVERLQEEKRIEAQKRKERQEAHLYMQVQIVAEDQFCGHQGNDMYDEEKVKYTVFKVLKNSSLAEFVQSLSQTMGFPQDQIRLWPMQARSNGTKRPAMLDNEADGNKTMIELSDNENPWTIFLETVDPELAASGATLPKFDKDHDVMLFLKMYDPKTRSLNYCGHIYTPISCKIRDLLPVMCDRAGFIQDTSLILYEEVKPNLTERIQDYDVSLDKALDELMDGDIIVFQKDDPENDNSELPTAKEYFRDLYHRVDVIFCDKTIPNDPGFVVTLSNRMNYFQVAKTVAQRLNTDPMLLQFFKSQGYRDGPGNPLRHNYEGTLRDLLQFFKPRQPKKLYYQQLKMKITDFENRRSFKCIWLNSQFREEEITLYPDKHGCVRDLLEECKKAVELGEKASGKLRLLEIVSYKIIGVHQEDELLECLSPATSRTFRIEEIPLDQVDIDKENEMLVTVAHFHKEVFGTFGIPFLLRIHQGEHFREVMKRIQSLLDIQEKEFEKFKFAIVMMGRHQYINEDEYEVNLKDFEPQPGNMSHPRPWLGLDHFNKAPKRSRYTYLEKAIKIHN
Description: Activity for compounds described herein is provided in Table 2, wherein potency levels are provided as follows: (Potency: USP7 IC50: A<0.01 μM; B=0.01-0.1 μM; C=>0.1 μM.

SK-N-DZ = assay: Cell viability (CellTiter-Glo), SK-N-DZ; format: cell-based; details: Homo sapiens, neuroblastoma, MYCN-amplified, p53-mutant
Description: as §1, §3

[1] = Tolerability in tumor-free NOD-SCID mice; format: in vivo; details: daily oral 50 mg/kg and 100 mg/kg, preliminary experiments
Description: as §7

NB-1 = assay: Cell viability (CellTiter-Glo), NB-1; format: cell-based; details: Homo sapiens, NB1; NB-1, neuroblastoma, MYCN amplified, p53 wild-type
Description: as §1, §2

HCC1937 = assay: Cell viability (CellTiter-Glo), HCC1937; format: cell-based; details: Homo sapiens; HCC1937, breast, triple-negative, BRCA1 mutant, p53-mutant
Description: as §1, §3

[2] = Tolerability in tumor-free mice (preliminary to H526 study); format: in vivo; details: preliminary testing, oral 50 mg/kg twice daily or 100 mg/kg daily
MYCN = assay: Western blot of MYCN in H526 cells; format: cell-based; details: after 2, 8 or 24 hours of treatment
Description: (§8) For Western blotting, compound-treated cells were lysed in RIPA lysis buffer (ThermoScientific) containing Halt Protease and Phosphatase Inhibitor Cocktail (Life Technologies). Lysates were quantified using the BCA protein assay (Pierce) and equivalent protein was separated by SDS-PAGE (4-12%, ThermoScientific). Following electrophoresis, proteins were transferred to PVDF membranes. […] Caspase activation assays were performed on compound-treated cells using the Caspase-Glo 3/7 Assay Kit (Promega) according to the manufacturer's protocol, and luminescence was measured using a CLARIOstar plate reader (BMG LABTECH). […] Data were collected using FACSCanto (Becton Dickinson) and Attune (Thermo Fisher Scientific) flow cytometers and analyzed with FlowJo software (FlowJo LLC). […] Lysates were quantified using the BCA protein assay (Pierce) and equivalent protein was used in the PathScan Phospho-S6 Ribosomal Protein (Ser235/236) Sandwich ELISA Kit (Cell Signaling) according to the manufacturer's protocol. Absorbance was measured using the Spectramax 300 plate reader (Molecular Devices).
(§9) The effect of pharmacological inhibition of USP7 on the viability of the p53 mutant small cell lung cancer cell line, H526 was further evaluated. […]

H526 xenograft = H526 xenograft model in athymic nude mice; format: in vivo
Description: as §6, §4

p21 = assay: Western blot of p21 in H526 cells; format: cell-based; details: after 2, 8 or 24 hours of treatment
Description: as §8, §9

[3] = H526, lung, small cell, p53-mutant, read-out: CC50
[4] = H526, p53 mutant small cell lung cancer, CellTiter-Glo assay, read-out: CC50 (viability of H526 in vitro)
[5] = H526 xenograft, athymic nude mice, twice-daily oral 50 mg/kg (FIG. 2) or daily oral 100 mg/kg (data not shown)

Compound	CC50 (CHP-134) [nM]	CC50 (H526; [3]) [nM]	CC50 (H526; [4]) [nM]	CC50 (MM.1S) [nM]	CC50 (OCI-AML5) [nM]	CC50 (MOLM13) [nM]	CC50 (SH-SY5Y) [nM]	CC50 (LA-N-2) [nM]	CC50 (M07e) [nM]	IC50 (USP7) [nM]	CC50 (SK-N-DZ) [nM]	CC50 (NB-1) [nM]	other results
Cc1cc(Cl)cc(-c2ccnc3cc(CN4C(=O)C5CC5C4=O)sc23)c1CN1[C@@H](C)CNC[C@@H]1C (stereo partly drawn) [Example 31, 3-((7-(5-chloro-2-(((2S,6S)-2,6-dimethylpiperazin-1-yl)methyl)-3-methylphenyl)thieno[3,2-b]pyridin-2-yl)methyl)-3-azabicyclo[3.1.0]hexane-2,4-dione]	500	500	500	100	200	100	1800	600	100	< 10	200	600	CC50 (EOL-1): 40 nM; CC50 (NCI-H929): 400 nM; CC50 (MOLP8): 200 nM; tumor growth (MM.1S xenograft; MM.1S xenograft, NOD-SCID mice, daily oral dosing at 50 mg/kg and 100 mg/kg, FIG. 1A): effectively inhibited MM.1S tumor growth; survival (MM.1S xenograft; MM.1S xenograft, NOD-SCID mice, daily oral dosing at 50 mg/kg and 100 mg/kg, FIG. 1B): prolonged survival in a dose-dependent manner; body weight (MM.1S xenograft; tumor-bearing NOD-SCID mice, longer-term xenograft study, daily oral 50 and 100 mg/kg, recovered with brief dosing holidays): dose-dependent body weight loss in a fraction of mice; tolerability [1]: well tolerated; CC50 (HCC1937): 100 nM
Cc1cc(Cl)cc(-c2ccnc3cc(CN4C(=O)C5C(C4=O)C5(C)C)sc23)c1C[C@@H]1CNCCO1 (stereo partly drawn) [Example 124, 3-((7-(5-chloro-3-methyl-2-(((R)-morpholin-2-yl)methyl)phenyl)thieno[3,2-b]pyridin-2-yl)methyl)-6,6-dimethyl-3-azabicyclo[3.1.0]hexane-2,4-dione]	600	500	500	100	200	400	1900	200	200	< 10	200	500	tolerability [2]: well tolerated; MYCN protein levels (MYCN): did not reduce MYCN protein levels; survival (H526 xenograft; [5]): prolonged survival; tumor growth (H526 xenograft; [5]): inhibited tumor growth; tolerability (H526 xenograft; tumor-bearing mice of the H526 study, oral 50 mg/kg twice daily or 100 mg/kg daily): well tolerated; p21 level (p21): did not induce any change in p21 level
Cc1cc(Cl)cc(-c2ccnc3cc(CN4C(=O)C5CC5C4=O)sc23)c1C[C@@H]1CNC[C@@H](C)O1 (stereo partly drawn) [Example 99, 3-((7-(5-chloro-3-methyl-2-(((2R,6R)-6-methylmorpholin-2-yl)methyl)phenyl)thieno[3,2-b]pyridin-2-yl)methyl)-3-azabicyclo[3.1.0]hexane-2,4-dione]	–	–	–	–	–	–	–	–	–	< 10	–	–	–
Cc1cc(Cl)cc(-c2ncnc3cc(Cn4c(=O)ccn(C5CC5)c4=O)sc23)c1CC1CNCCO1 (stereo not drawn) [Example 165, 3-((4-(5-chloro-3-methyl-2-(morpholin-2-ylmethyl)phenyl)thieno[3,2-d]pyrimidin-6-yl)methyl)-1-cyclopropylpyrimidine-2,4(1H,3H)-dione]	–	–	–	–	–	–	–	–	–	< 10	–	–	–
Cc1cc(Cl)cc(-c2ncnc3cc(CN4C(=O)CCN(CC(F)(F)F)C4=O)sc23)c1CN1[C@@H](C)CNC[C@@H]1C [Example 260, 3-((4-(5-chloro-2-(((2S,6S)-2,6-dimethylpiperazin-1-yl)methyl)-3-methylphenyl)thieno[3,2-d]pyrimidin-6-yl)methyl)-1-(2,2,2-trifluoroethyl)dihydropyrimidine-2,4(1H,3H)-dione]	–	–	–	–	–	–	–	–	–	< 10	–	–	–
Cc1cc(Cl)cc(-c2ncnc3cc(CN4C(=O)C5CCCN5C4=O)sc23)c1CN1[C@@H](C)CNC[C@@H]1C (stereo partly drawn) [Example 86, 2-((4-(5-chloro-2-(((2S,6S)-2,6-dimethylpiperazin-1-yl)methyl)-3-methylphenyl)thieno[3,2-d]pyrimidin-6-yl)methyl)tetrahydro-1H-pyrrolo[1,2-c]imidazole-1,3(2H)-dione]	–	–	–	–	–	–	–	–	–	< 10	–	–	–
